Where “and” joins values, the source holds several entries; their conditions need not be identical. Equal values may be shown once.
What was measured:
[1] = molecular target: T1, Cytochrome P450 11B2, mitochondrial (Homo sapiens, UniProt P19099); assay: (§1) Cellular Enzyme Assay: G-402 cells expressing CYP11 constructs were established as described above and maintained in McCoy's 5a Medium Modified, ATCC Catalog No. 30-2007 containing 10% FCS and 400 ug/ml G418 (Geneticin) at 37° C. under an atmosphere of 5% CO2/95% air. […] For assaying enzymatic activity, cells were plated onto 96 well plates and incubated for 16 h. An aliquot of the supernatant is then transferred and analyzed for the concentration of the expected product (Aldosterone for CYP11B2; Cortisol for CYP11B1). The concentrations of these steroids can be determined using HTRF assays from CisBio analyzing either Aldosterone or Cortisol.
T1 sequence (P19099 whole entry): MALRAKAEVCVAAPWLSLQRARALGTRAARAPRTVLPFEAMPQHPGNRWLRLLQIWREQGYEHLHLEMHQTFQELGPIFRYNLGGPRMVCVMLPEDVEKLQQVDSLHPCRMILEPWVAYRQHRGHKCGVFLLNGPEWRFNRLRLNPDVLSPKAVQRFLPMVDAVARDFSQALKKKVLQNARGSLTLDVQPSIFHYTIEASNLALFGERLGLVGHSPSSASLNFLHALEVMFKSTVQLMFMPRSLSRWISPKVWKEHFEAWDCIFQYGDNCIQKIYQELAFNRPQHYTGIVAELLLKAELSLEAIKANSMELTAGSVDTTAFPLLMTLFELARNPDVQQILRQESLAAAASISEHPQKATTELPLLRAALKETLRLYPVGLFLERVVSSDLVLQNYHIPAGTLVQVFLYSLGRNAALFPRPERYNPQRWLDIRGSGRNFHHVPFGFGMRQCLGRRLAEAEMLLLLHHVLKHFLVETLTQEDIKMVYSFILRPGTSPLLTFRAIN

[2] = molecular target: T1, Cytochrome P450 11B2, mitochondrial; assay: as §1; assay type: cell-based
[3] = molecular target: T2, Cytochrome P450 11B1, mitochondrial (Homo sapiens, UniProt P15538); assay: as §1; assay type: cell-based
T2 sequence (P15538 whole entry): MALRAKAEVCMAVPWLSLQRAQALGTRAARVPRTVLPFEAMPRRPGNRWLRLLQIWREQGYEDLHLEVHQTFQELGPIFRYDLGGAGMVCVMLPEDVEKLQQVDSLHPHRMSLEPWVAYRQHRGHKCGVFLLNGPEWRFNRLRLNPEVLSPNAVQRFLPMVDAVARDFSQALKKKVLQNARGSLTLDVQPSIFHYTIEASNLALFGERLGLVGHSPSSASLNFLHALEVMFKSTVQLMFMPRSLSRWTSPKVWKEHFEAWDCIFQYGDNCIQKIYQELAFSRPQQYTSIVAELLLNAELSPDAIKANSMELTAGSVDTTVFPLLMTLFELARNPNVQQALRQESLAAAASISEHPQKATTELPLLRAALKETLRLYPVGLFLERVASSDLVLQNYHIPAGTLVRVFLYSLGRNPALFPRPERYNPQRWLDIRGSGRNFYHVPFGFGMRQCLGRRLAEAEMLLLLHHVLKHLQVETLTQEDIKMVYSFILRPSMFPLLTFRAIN

Compound | EC50 [1] | EC50 [2] [µM] | EC50 [3]
CC1(C)Cc2c(-c3ccc(C(F)(F)F)c(F)c3)cncc2C1O (single isomer, unassigned) | 0.0303 µM | 0.0031 | 0.304 µM and 0.791 µM
CC1(C)Cc2c(-c3ccc(C#N)cc3)cncc2C1O (single isomer, unassigned) | 0.0022 µM and 0.0121 µM | – | –
CC1(C)Cc2c(-c3ccc(C(F)(F)F)cc3)cncc2C1O (single isomer, unassigned) | 0.0152 µM | 0.0304 | 2.7 µM and 1.64 µM
CCC(=O)NC1CCc2c(-c3ccc(F)c(C)c3)cncc21 (single isomer, unassigned; form 1) | 5.77 µM | – | –

From ChEMBL document CHEMBL3886363, “Phenyl-tetrahydroisoquinoline derivatives” (2015)
